Data taken from patent publication US8093274B2, “Inhibitors of protein prenyltransferases” (The Regents of the University of California, priority 2006, dated 2012).

Columns and labels:
[1] = system: geranylgeranylated Rheb (Rheb-CSVL) in HEK 293 cells; assay: Geranylgeranylation of Rheb-CVSL in HEK 293 cells, mobility shift on Western blot; format: cell-based, human; conditions: for inhibition of geranylgeranylation of Rheb-CSVL within the cell: HEK 293 cells, FIG. 33; for inhibition of geranylgeranylation of Myc-HA tagged-Rheb-CVSL in cells: HEK 293 cells treated for 48 hours
From the text: Finally, we investigated in vivo effects of compounds 22 (also known as UC-22) and 23 (also known as UC-23). Human embryonic kidney (HEK) 293 cells were transfected with the Rheb-CSVL construct that expresses the geranylgeranylated form of the Rheb protein. Inhibition of the geranylgeranylation of this protein can be detected from a shift in its mobility on SDS polyacrylamide gel; the unprocessed form appears as a slowly migrating band.
Human embryonic kidney (HEK) 293 cells expressing Myc-HA tagged-Rheb-CVSL (upper) or Myc-HA tagged-Rheb-WT (lower) were treated with P3-E5 for 48 hours and then lysed. The cell lysates were run on a SDS polyacrylamide gel and immunoblotted using anti-Myc or anti-Actin antibody. The descriptors P and U indicate processed and unprocessed Rheb, respectively.
Human embryonic kidney (HEK) 293 cells expressing Myc-HA tagged-Rheb-CVSL (upper) or Myc-HA tagged-Rheb-WT (lower) were treated with mP5-H6a (also referred to as mP5-H6), or GGTI-298 for 48 hours and then lysed. Lysates were run on a SDS polyacrylamide gel and immunoblotted with anti-Myc or anti-Actin antibody.

[2] = target: GGTase I (substrate RhoA) (Homo sapiens, UniProt P49354+P53609); assay: GGTase I filter-binding assay with RhoA as substrate; format: biochemical; conditions: for specificity of GGTase I inhibition: compared with FTase and GGTase-II, varying concentrations, FIGS. 20A-20C
Protocol: (§1) The pilot library was screened for inhibitors of protein geranylgeranyltransferase type I. Protein prenyltransferase assays were carried out by using filter binding. Two different substrates, RhoA and K-Ras4B, were used for the assay. RhoA ends with the CaaL motif and is an exclusive substrate for GGTase I, while K-Ras4B ends with the CaaX motif and is modified by both GGTase I and FTase.
(§2) The % activity of GGTase I was determined as follows: a working solution that contained each compound in DMSO at the concentration of 1 mM was prepared. The working solution was added to GGTase I reaction mixture so that the final concentration of the compound is 50 μM. GGTase I activity was assayed by incubating [^3H]GGPP with K-Ras4B or RhoA protein in the presence of GGTase I and examining radioactivity incorporated into the substrate protein by spotting onto a filter paper. After washing with TCA, ethanol and acetone, the radioactivity retained on the filter was determined by the use of a scintillation counter. GGTase I activity in the presence of DMSO was taken as a 100% value and the activity in the presence of the compound was shown as percent activity compared with the 100% value. […] For 6-aryl-4-mercapto-N-sulfonyl-piperidine-3-carboxylic acid 11 the 4-mercapto substituent appeared critical to endowing GGTase inhibitory activity. […] 4-Chlorobenzylthio substituent was the next best; 12 compounds out of 21 containing the 4-chlorobenzylthio moiety were active. 4-Benzylthio substituent was also good; 7 piperidines out of 21 bearing 4-benzylthio group were active. […] 19 imines (C15>C12=C41>C40>C01=C11>C05=C10=C30=C35=C37=C38>C02, C03, C04, C06, C39=C43) out of 21 appeared in the GGTIs. […] This corresponds to 47 6-aryl-4-mercapto-N-sulfonyl-piperidine-3-carboxylic acids out of 357 compounds.
(§3) A collection of 138 heterocycles was screened for their ability to inhibit the activity of human GGTase-I to geranylgeranylate K-Ras4B or RhoA. Purified GGTase-1 was incubated with its substrate protein K-Ras4B or RhoA, [^3H]GGPP, and the 138 compounds. After 30 min, the degree of incorporation of tritiated geranylgeranyl groups was measured using a scintillation counter.
(§4) The GGTase-I assay was carried out using RhoA as a substrate protein, GGTase-I (JENA Bioscience) and [3H]geranylgeranyl pyrophosphate. Incubation was for 30 min at 37 C. GGTase-H (or RabGGTase) assay was carried out using YPT1 as a substrate protein, GGTase-H (Calbiochem, San Diego, Calif.) plus REP1 (Calbiochem) and [3H]geranylgeranyl pyrophosphate. Incubation was for 30 min at 37 C. FIGS. 20D-20F show the three dimensional structure of GGTase I (D), FTsse (E) and GGTase II (F) which can be obtained from X-ray diffraction studies of protein crystals.

[3] = target: GGTase I (substrate K-Ras4B) (Homo sapiens, UniProt P49354+P53609); assay: GGTase I filter-binding assay with K-Ras4B as substrate; format: biochemical; conditions: 50 μM compound; DMSO = 100%; smaller numbers indicate better inhibition; first number of pair; read-out: % activity of GGTase I for protein K-Ras4B in the presence of the compound
Protocol: as §1, §2, §3

K562 cells [4] = assay: Proliferation of K562 cells, cell counting kit-8; format: cell-based, human; conditions: 72 hours; relative to DMSO control
Protocol: (§5) K562 cells are a cell line of human erythroleukemia cells. The K562 cells were treated with P3-E5, P5-H6 or GGTI-298 (a known GGTI compound illustrated in FIG. 27) for 72 hours and then cell number was counted using cell counting kit-8 (Dojindo, Gaithersburg, Md.). Cell viability relative to the DMSO control and the known GGTI compound is plotted in FIG. 23.

GGTase-I = GGTase-I inhibition kinetics, double reciprocal plots; format: biochemical; conditions: varying GGPP with fixed RhoA
Protocol: as §4
The graphs in FIG. 21 show double reciprocal plots obtained from substrate velocity curves for the inhibition of GGTase-I by P3-E5 (left) and P5-H6 (right). The upper figures show varying GGPP concentrations with a fixed RhoA protein concentration were used. The lower figures show varying RhoA protein concentrations with a fixed GGPP concentration was used. The following scale was used to prepare the graphs: Y-axis: 1/v, fmol/min. X-axis: 1/s, mM.

[5] = target: T1, protein farnesyltransferase (FTase) (Rattus norvegicus, UniProt Q02293+Q04631); assay: Protein farnesyltransferase assay with K-Ras4B and [3H]FPP; format: biochemical; conditions: for inhibition of FTase: at concentrations at which they inhibited GGTase-I by more than 90%
T1 construct: purchased JENA Bioscience
From the text: To further characterize the pilot library, inhibitors of protein farnesyltransferase were identified. This was accomplished by using K-Ras4B as a substrate protein, tritiated farnesylpyrophosphate ([^3H]FPP) and protein farnesyltransferase. See Finegold, A. A., Johnson, D. I., Farnsworth, C. C., Gelb, M. H., Judd, S. R., Glomset, J. A. and Tamanoi, F. (1991) Protein geranylgeranyltransferase of Saccharomyces cerevisiae is specific for Cys-Xaa-Xaa-Leu motif and requires the CDC43 gene product but not the DPRI gene product. Proc. Natl. Acad. Sci. USA 88, 4448-4452. […] On the other hand, the structure of the compounds P1-F11, P2-B7 and P2-E9 resemble those of GGTIs. The FTI P1-F11 resembles the GGTI P1-F10, while the FTI P2-B7 resembles the GGTI P2-C10. The FTI P2-E9 is similar to the GGTI P2-G3. Similarity of some GGTI and FTI compounds may point to common structural features between the two closely related enzymes. As described before, FTase and GGTase I have similar three-dimensional structures and a shared alpha subunit. On the other hand, FTase specific inhibitors may recognize a region(s) that is different between the two enzymes.
Varying concentrations of the two compounds were added to each enzyme reaction. The FTase (protein farnesyltransferase) assay was carried out using K-Ras4B as a substrate protein, FTase (JENA Bioscience, San Diego, Calif.) and […] pyrophosphate. Incubation was for 30 min at 37 C.

K562 cells [6] = assay: Cell cycle profile of K562 cells by flow cytometry; format: cell-based, human; conditions: 48 hours; 0 to 10 mM
Protocol: K562 cells were treated with indicated concentrations (mM) of P3-E5 (ranging from […]) or GGTI-298 (ranging from […]) for 48 hours. Cell cycle profiles were monitored by flow cytometry. Percentages of cells in each phase of the cell cycle are indicated by different colors. Red: G0/G1 phase. Black: S phase. Gray: G2/M phase.

MDA-MB231 = assay: Proliferation of MDA-MB231 cells; format: cell-based, human
BT474 = assay: Proliferation of BT474 cells; format: cell-based, human
Jurkat cells = assay: Proliferation of Jurkat cells; format: cell-based, human
Protocol: as §5
(§6) Panc-1 cells (Pancreatic cancer cell line) and Jurkat cells (T-cell leukemia) were treated with 12.5 μM of P5-H6 or 12.5 μM of mP5-H6a for 72 hours. The cell number was counted as described in Example 5.

Panc-1 cells = assay: Proliferation of Panc-1 cells; format: cell-based, human
Protocol: as §5, §6

MiaPaCa2 = assay: Proliferation of MiaPaCa2 cells; format: cell-based, human

activity at 50 µM ([2]; 50 μM compound, DMSO = 100%, smaller numbers indicate better inhibition, second number of pair, read-out: % activity of GGTase I for protein RhoA in the presence of the compound) | specificity of GGTase I inhibition [2] | activity at 50 µM [3] | inhibition of FTase [5] | IC50 ([2]; FIG. 15, read-out: IC50 for the inhibition of GGTase I using RhoA as a substrate) | SMILES | inhibition of geranylgeranylation of Rheb-CSVL within the cell [1] | inhibition of proliferation of K562 cells (K562 cells [4]) | mode of inhibition of GGTase-I (GGTase-I) | cell cycle effect in K562 cells (K562 cells [6]) | inhibition of geranylgeranylation of Myc-HA tagged-Rheb-CVSL in cells [1] | inhibition of FTase activity ([5]; FIG. 16, concentration increased to 100 μM) | inhibition of proliferation of breast cancer cell line MDA-MB231 (MDA-MB231) | inhibition of proliferation of breast cancer cell line BT474 (BT474) | inhibition of proliferation of leukemic cell line Jurkat (Jurkat cells) | inhibition of growth of Jurkat cells relative to P5-H6 (Jurkat cells; 12.5 μM, 72 hours) | inhibition of proliferation of pancreatic cancer cell line Panc-I (Panc-1 cells) | inhibition of growth of Panc-1 cells relative to P5-H6 (Panc-1 cells; 12.5 μM, 72 hours) | inhibition of proliferation of pancreatic cancer cell line MiaPaCa2 (MiaPaCa2)
5.3% | specifically inhibit GGTase I | 13.3% | did not inhibit FTase | – | Cc1ccccc1S(=O)(=O)N1[C@@H](c2ccc(Cl)cc2)C(C(=O)O)=C[C@H]1C(C)(C)C (relative stereo) [P5-H6] | inhibit geranylgeranylation within the cell | inhibit proliferation of K562 cells | compete with a substrate protein but do not compete with GGPP | – | – | – | – | – | – | – | – | – | –
– | specifically inhibit GGTase I | – | did not inhibit FTase | 7 µM | Cc1ccccc1S(=O)(=O)N1[C@@H](c2cccc(Cl)c2)C(C(=O)O)=CC[C@H]1c1ccc(Cl)cc1 (relative stereo) [P3-E5] | inhibit geranylgeranylation within the cell | inhibit proliferation of K562 cells | compete with a substrate protein but do not compete with GGPP | induces G1 arrest in K562 cells | inhibits geranylgeranylation in cells | no inhibition of FTase activity was observed | – | – | – | – | – | – | –
– | – | – | – | – | COC(=O)[C@H](Cc1ccccc1)NCC(=O)OCC1=C[C@@H](C(C)(C)C)N(S(=O)(=O)c2ccccc2C)C1c1ccc(Cl)cc1 (stereo partly drawn) [mP5-H6] | – | – | – | – | inhibits geranylgeranylation in vivo | – | inhibits proliferation | inhibits proliferation | inhibits proliferation | inhibits the growth of Panc-1 cells and Jurkat cells better than P5-H6 | inhibits proliferation | inhibits the growth of Panc-1 cells and Jurkat cells better than P5-H6 | inhibits proliferation
